# Assay results published in patent publication US6451814B1, “Heterocyclic β-3 adrenergic receptor agonists” (Wyeth, priority 2000, dated 2002).
# Where a name gives a salt, the structure may show the parent alone.
row,Compound,melting point [°C]
1,"COc1ccc2[nH]c(C(=O)N3CCC(Nc4ccc(CCNCC(O)COc5ccc(O)cc5)cc4)CC3)cc2c1 (stereo not drawn) (as salt: salt) [Example 94, [4-(4-{2-[2-Hydroxy-3-(4-hydroxy-phenoxy)-propylamino]-ethyl}-phenylamino)-piperidin-1-yl]-(5-methoxy-1H-indol-2-yl)-methanone]",101 to 103
2,"C=CCc1ccccc1OC[C@@H](O)CNCCc1ccc(NC2CCN(C(=O)NCCCCCCCC)CC2)cc1 (as salt: salt) [Example 4, 4-(4-{2-[(2S)-3-(2-Allyl-phenoxy)-2-hydroxy-propylamino]-ethyl}-phenylamino)-piperidine-1-carboxylic Acid Octylamide]",73 to 80
3,"CCCCCCCCNC(=O)N1CCC(Nc2ccc(CCNC[C@H](O)COc3ccc(F)cc3)cc2)CC1 [Example 3, 4-(4-{2-[(2S)-3-(4-Fluoro-phenoxy)-2-hydroxy-propylamino]-ethyl}-phenylamino)-piperidine-1-carboxylic Acid Octylamide]",58 to 64
4,"O=C(NCc1ccc(Cl)cc1Cl)N1CCC(Nc2ccc(CCNC[C@H](O)COc3ccc(O)cc3)cc2)CC1 (as salt: ammonium) [Example 20, 4-(4-{2-[(2S)-2-Hydroxy-3-(4-hydroxy-phenoxy)-propylamino]-ethyl}-phenylamino)-piperidine-1-carboxylic Acid 2,4-dichloro-benzylamide]",93 to 99
5,"Oc1ccc(OC[C@@H](O)CNCCc2ccc(NC3CCN(c4nc(-c5ccccc5)cs4)CC3)cc2)cc1 (as salt: hydrochloride) [Example 117, 4-[(2S)-2-Hydroxy-3-(2-{4-[1l-(4-phenyl-thiazol-2-yl)-piperidin-4-ylamino]-phenyl}-ethylamino)-propoxy]-phenol]",80 to 82
6,"CCNC(=O)N1CCC(Nc2ccc(CCNC[C@H](O)COc3ccc(O)cc3)cc2)CC1 (as salt: salt) [Example 10, 4-(4-{2-[(2S)-2-Hydroxy-3-(4-hydroxy-phenoxy)-propylamino]-ethyl}-phenylamino)-piperidine-1-carboxylic Acid Ethylamide]",81 to 85
7,"O=C(NCCCC1CCCC1)N1CCC(Nc2ccc(CCNC[C@H](O)COc3ccc(O)cc3)cc2)CC1 (as salt: salt) [Example 12, 1-4-(4-{2-[(2S)-2-Hydroxy-3-(4-hydroxy-phenoxy)-propylamino]-ethyl}-phenylamino)-piperidine-1-carboxylic Acid (3-cyclopentyl-propyl)-amide]",71 to 74
8,O=C(NC1CCCCC1)N1CCC(Nc2ccc(CCNC[C@H](O)COc3ccc(O)cc3)cc2)CC1 (as salt: salt) [Example 2],77 to 86
9,"CCCCCCCCNC(=O)N1CCC(Nc2ccc(CCNCC(O)c3ccc(O)c(C(N)=O)c3)cc2)CC1 (stereo not drawn) (as salt: salt) [Example 7, 4-(4-{2-[2-(3-Carbamoyl-4-hydroxy-phenyl)-2-hydroxy-ethylamino]-ethyl}-phenylamino)-piperidine-1-carboxylic Acid Octylamide]",101 to 104
10,"CCCCCCCCNC(=O)N1CCC(Nc2ccc(CCNC[C@H](O)COc3ccc(N)nc3)cc2)CC1 (as salt: salt) [Example 5, 4-(4-{2-[(2S)-3-(6-Amino-pyridin-3-yloxy)-2-hydroxy-propylamino]-ethyl}-phenylamino)-piperidine-1-carboxylic Acid Octylamide]",134 to 138
11,"C=CCc1ccccc1OC[C@@H](O)CNCCc1ccc(NC2CCN(S(=O)(=O)c3ccc(N(CCCCCC)C(N)=O)cc3)CC2)cc1 [Example 110, N-[4-({4-[4-(2-{[(2S)-3-(2-allylphenoxy)-2-hydroxypropyl]amino}ethyl)anilino]-1-piperidinyl}sulfonyl)phenyl]-N-hexylurea]",68 to 70
12,"O=C(O)COc1ccc(NC(=O)N2CCC(Nc3ccc(CCNC[C@H](O)COc4ccc(O)cc4)cc3)CC2)cc1 (as salt: salt) [Example 58, (4-{[4-(4-{2-[(2S)-2-Hydroxy-3-(4-hydroxy-phenoxy)-propylamino]-ethyl}-phenylamino)-piperidine-1-carbonyl]-amino}-phenoxy)-acetic Acid]",175
13,"COc1c(C(=O)N2CCC(Nc3ccc(CCNC[C@H](O)COc4cccc(NC(C)=O)c4)cc3)CC2)sc2ccccc12 (as salt: salt) [Example 98, N-{3-[(2S)-2-Hydroxy-3-(2-{4-[1-(3-methoxy-benzo[b]thiophene-2-carbonyl)-piperidin-4-ylamino]-phenyl}-ethylamino)-propoxy]-phenyl}-acetamide]",96 to 98
14,"CNC(=O)N1CCC(Nc2ccc(CCNC[C@H](O)COc3ccc(O)cc3)cc2)CC1 (as salt: salt) [Example 9, 4-(4-{2-[(2S)-2-Hydroxy-3-(4-hydroxy-phenoxy)-propylamino]-ethyl}-phenylamino)-piperidine-1-carboxylic Acid Methylamide]",72 to 77
15,"CCCCCCCCNC(=O)N1CCC(Nc2ccc(CCNC[C@H](O)CON=C3CCCc4c(O)cccc43)cc2)CC1 [Example 64, 4-(4-{2-[(2S)-2-Hydroxy-3-(5-hydroxy-3,4-dihydro-2H-naphthalen-1-ylideneaminooxy)-propylamino]-ethyl}-phenylamino)-piperidine-1-carboxylic Acid Octylamide]",85 to 87
16,"O=C(NCc1ccc(Cl)c(Cl)c1)N1CCC(Nc2ccc(CCNC[C@H](O)COc3ccc(O)cc3)cc2)CC1 (as salt: ammonium) [Example 21, 4-(4-{2-[(2S)-2-Hydroxy-3-(4-hydroxy-phenoxy)-propylamino]-ethyl}-phenylamino)-piperidine-1-carboxylic Acid 3,4-dichloro-benzylamide]",94 to 97
17,"CCCCCCCCNC(=O)N1CCC(Nc2ccc(CCNC[C@H](O)COc3ccc(NS(C)(=O)=O)cc3)cc2)CC1 [Example 22, 4-(4-{2-[(2S)-2-Hydroxy-3-(4-methanesulfonylamino-phenoxy)-propylamino]-ethyl}-phenylamino)-piperidine-1-carboxylic Acid Octylamide]",89 to 95
18,"CCCCCCNC(=O)Nc1ccc(C(=O)N2CCC(Nc3ccc(CCNC[C@H](O)COc4ccc(O)cc4)cc3)CC2)cc1 [Example 93, 1-Hexyl-3-{4-[4-(4-{2-[(2S)-2-hydroxy-3-(4-hydroxy-phenoxy)-propylamino]-ethyl}-phenylamino)-piperidine-1-carbonyl]-phenyl}-urea]",108 to 111
19,"CCCCCCCCNC(=O)N1CCC(S(=O)(=O)c2ccc(CCNC[C@H](O)COc3ccc4c(c3)OCO4)cc2)CC1 [Example 49, 4-(4-{2-[(2S)-3-(Benzo[1,3]dioxol-5-yloxy)-2-hydroxy-propylamino]-ethyl}-benzenesulfonyl)-piperidine-1-carboxylic Acid Octylamide]",84 to 86
20,CC(C)NC(=O)N1CCC(Nc2ccc(CCNC[C@H](O)COc3ccc(O)cc3)cc2)CC1 (as salt: salt) [Example 11],89 to 96
21,"O=C(NCc1ccc(F)cc1)N1CCC(Oc2ccc(CCNC[C@H](O)COc3ccc(O)cc3)cc2)CC1 (as salt: salt) [Example 56, 4-(4-{2-[(2S)2-Hydroxy-3-(4-hydroxy-phenoxy)-propylamino]-ethyl}-phenoxy)-piperidine-1-carboxylic Acid 4-fluoro-benzylamide]",160 to 162
